What was measured:
[1] = tested on: MDA-MB-436; experiment: Antiproliferative activity against human MDA-MB-436 cells assessed as inhibition of cell growth at 20 uM incubated for 48 hrs by MTT assay relative to control; type: functional
[2] = tested on: SUM149PT; experiment: Antiproliferative activity against human SUM149PT cells assessed as inhibition of cell growth at 20 uM incubated for 48 hrs by MTT assay relative to control; type: functional
[3] = tested on: HCC1937; experiment: Antiproliferative activity against human HCC1937 cells assessed as inhibition of cell growth at 20 uM incubated for 48 hrs by MTT assay relative to control; type: functional
[4] = tested on: CAPAN-1; experiment: Antiproliferative activity against human CAPAN-1 cells assessed as inhibition of cell growth incubated for 48 hrs by MTT assay; type: functional, cell-based; details: CAPAN-1, 48 h
[5] = tested on: CAPAN-1; experiment: Antiproliferative activity against human CAPAN-1 cells assessed as inhibition of cell growth at 20 uM incubated for 48 hrs by MTT assay relative to control; type: functional
[6] = tested on: SUM149PT; experiment: Antiproliferative activity against human SUM149PT cells assessed as inhibition of cell growth incubated for 48 hrs by MTT assay; type: functional, cell-based
[7] = tested on: CAPAN-1; experiment: Antiproliferative activity against human CAPAN-1 cells assessed as inhibition of cell growth at 5 uM incubated for 48 hrs by MTT assay relative to control; type: functional
[8] = tested on: HCC1937; experiment: Antiproliferative activity against human HCC1937 cells assessed as inhibition of cell growth incubated for 48 hrs by MTT assay; type: functional, cell-based; details: HCC1937, 48 h
[9] = tested on: HCC1937; experiment: Antiproliferative activity against human HCC1937 cells assessed as inhibition of cell growth at 5 uM incubated for 48 hrs by MTT assay relative to control; type: functional
[10] = tested on: SUM149PT; experiment: Induction of apoptosis in human SUM149PT cells assessed as early apoptotic cells at 2 uM incubated for 24 hrs by Annexin V-FITC/PI staining based flow cytometry (reference value: 2.59 %); type: functional
[11] = tested on: SUM149PT; experiment: Induction of cell cycle arrest in human SUM149PT cells assessed as accumulation of cells at G2/M phase at 2 uM incubated for 24 hrs by propidium iodide/RNase A staining based flow cytometry (reference value: 5.54 %); type: functional
[12] = tested on: SUM149PT; experiment: Induction of apoptosis in human SUM149PT cells assessed as early apoptotic cells at 2 uM incubated for 48 hrs by Annexin V-FITC/PI staining based flow cytometry (reference value: 2.28 %); type: functional
[13] = tested on: SUM149PT; experiment: Induction of cell cycle arrest in human SUM149PT cells assessed as accumulation of cells at G0/G1 phase at 2 uM incubated for 24 hrs by propidium iodide/RNase A staining based flow cytometry (reference value: 72.8 %); type: functional
[14] = tested on: SUM149PT; experiment: Induction of apoptosis in human SUM149PT cells assessed as necrotic cells at 2 uM incubated for 24 hrs by Annexin V-FITC/PI staining based flow cytometry (reference value: 1.27 %); type: functional
[15] = tested on: SUM149PT; experiment: Induction of cell cycle arrest in human SUM149PT cells assessed as accumulation of cells at S phase at 2 uM incubated for 24 hrs by propidium iodide/RNase A staining based flow cytometry (reference value: 16.4 %); type: functional
[16] = tested on: SUM149PT; experiment: Induction of cell cycle arrest in human SUM149PT cells assessed as accumulation of cells at S phase at 2 uM incubated for 48 hrs by propidium iodide/RNase A staining based flow cytometry (reference value: 18.7 %); type: functional
[17] = tested on: SUM149PT; experiment: Induction of apoptosis in human SUM149PT cells assessed as late apoptotic cells at 2 uM incubated for 24 hrs by Annexin V-FITC/PI staining based flow cytometry (reference value: 2.45 %); type: functional
[18] = tested on: SUM149PT; experiment: Induction of apoptosis in human SUM149PT cells assessed as necrotic cells at 2 uM incubated for 48 hrs by Annexin V-FITC/PI staining based flow cytometry (reference value: 0.51 %); type: functional
[19] = tested on: SUM149PT; experiment: Induction of apoptosis in human SUM149PT cells assessed as viable cells at 2 uM incubated for 48 hrs by Annexin V-FITC/PI staining based flow cytometry (reference value: 96.1 %); type: functional; details: read-out: Activity
[20] = tested on: SUM149PT; experiment: Induction of apoptosis in human SUM149PT cells assessed as late apoptotic cells at 2 uM incubated for 48 hrs by Annexin V-FITC/PI staining based flow cytometry (reference value: 1.13 %); type: functional
[21] = tested on: SUM149PT; experiment: Induction of cell cycle arrest in human SUM149PT cells assessed as accumulation of cells at G0/G1 phase at 2 uM incubated for 48 hrs by propidium iodide/RNase A staining based flow cytometry (reference value: 69.2 %); type: functional
[22] = tested on: SUM149PT; experiment: Induction of apoptosis in human SUM149PT cells assessed as viable cells at 2 uM incubated for 24 hrs by Annexin V-FITC/PI staining based flow cytometry (reference value: 93.7 %); type: functional; details: read-out: Activity
[23] = tested on: SUM149PT; experiment: Antiproliferative activity against human SUM149PT cells assessed as inhibition of cell growth at 5 uM incubated for 48 hrs by MTT assay relative to control; type: functional

Row | Compound | inhibition at 20 µM [1] | inhibition at 20 µM [2] | inhibition at 20 µM [3] | IC50 [4] | IC50 [6] | IC50 [8] | other results
1 | NC(=O)c1cc(F)cc2cc(-c3ccc4c(c3)OCO4)c(=O)oc12 | < 40% | > 60% | > 60% | – | – | – | –
2 | COc1ccc(-c2cc3cccc(C(N)=O)c3oc2=O)cc1 | < 40% | > 60% | > 60% | – | – | – | –
3 | COc1cc(-c2cc3cccc(C(N)=O)c3oc2=O)ccc1O | < 40% | > 60% | > 60% | – | – | – | –
4 | NC(=O)c1cccc2cc(-c3cccs3)c(=O)oc12 | < 40% | > 60% | > 60% | – | – | – | –
5 | NC(=O)c1cc(F)cc2cc(-c3cccc(O)c3)c(=O)oc12 | < 40% | > 60% | > 60% | – | – | – | –
6 | COc1ccc(-c2cc3cccc(C(N)=O)c3oc2=O)cc1OC | < 40% | > 60% | > 60% | – | – | – | –
7 | COc1cc(OC)cc(-c2cc3cccc(C(N)=O)c3oc2=O)c1 | < 40% | > 60% | > 60% | – | – | – | –
8 | NC(=O)c1cccc2cc(-c3ccccc3O)c(=O)oc12 | < 40% | > 60% | > 60% | – | – | – | –
9 | NC(=O)c1cc(F)cc2cc(-c3ccc(O)cc3)c(=O)oc12 | < 40% | > 60% | > 60% | – | – | – | –
10 | NC(=O)c1cccc2cc(-c3ccc4c(c3)OCO4)c(=O)oc12 | < 40% | > 60% | > 60% | – | – | – | –
11 | COc1cc(-c2cc3cc(F)cc(C(N)=O)c3oc2=O)ccc1O | < 40% | > 60% | > 60% | 3.16 µM | 3.18 µM | 4.2 µM | inhibition at 20 µM [5]: > 60%; inhibition at 5 µM [7]: > 50%
12 | COc1ccc(-c2cc3cc(F)cc(C(N)=O)c3oc2=O)cc1OC | < 40% | > 60% | > 60% | 8.6 µM | 4.09 µM | 3.67 µM | –
13 | COc1ccc(-c2cc3cc(F)cc(C(N)=O)c3oc2=O)cc1 | < 40% | > 60% | > 60% | – | – | – | –
14 | COc1ccc(-c2cc3cc(F)cc(C(N)=O)c3oc2=O)cc1O | < 40% | > 60% | > 60% | – | – | – | –
15 | NC(=O)c1cc(F)cc2cc(-c3ccc4c(c3)CCO4)c(=O)oc12 | < 40% | > 60% | > 60% | 21.1 µM | 5.11 µM | 3.71 µM | –
16 | NC(=O)c1cc(F)cc2cc(-c3ccccc3)c(=O)oc12 | < 40% | > 60% | > 60% | – | – | – | –
17 | NC(=O)c1cc(F)cc2cc(-c3ccccc3O)c(=O)oc12 | < 40% | > 60% | > 80% | 11.9 µM | 3.29 µM | 2.94 µM | inhibition at 5 µM [9]: > 70%
18 | COc1ccc(-c2cc3cccc(C(N)=O)c3oc2=O)cc1O | < 40% | > 60% | > 60% | 15.3 µM | 4.82 µM | 10.6 µM | –
19 | NC(=O)c1cccc2cc(-c3cccc(O)c3)c(=O)oc12 | < 40% | > 60% | > 60% | – | – | – | –
20 | NC(=O)c1cccc2cc(-c3ccsc3)c(=O)oc12 | < 40% | > 60% | > 60% | – | – | – | –
21 | NC(=O)c1cccc2cc(-c3ccc(O)cc3)c(=O)oc12 | < 40% | > 60% | > 60% | 19.1 µM | 3.14 µM | 10.8 µM | –
22 | COc1cccc(-c2cc3cccc(C(N)=O)c3oc2=O)c1 | < 40% | > 60% | > 80% | 4.6 µM | 4.93 µM | 0.62 µM | inhibition at 20 µM [5]: > 60%; inhibition at 5 µM [9]: > 70%; inhibition at 5 µM [7]: > 50%
23 | NC(=O)c1cccc2cc(-c3ccc4c(c3)CCO4)c(=O)oc12 | < 40% | > 60% | > 60% | – | – | – | –
24 | NC(=O)c1cccc2cn(-c3ccc([C@@H]4CCCNC4)cc3)nc12 [NIRAPARIB] | – | – | – | 10.4 µM | 7.05 µM | – | Activity [10]: 1.85%; Activity [11]: 16.2%; Activity [12]: 11.8%; Activity [13]: 54.2%; Activity [14]: 1.93%; Activity [15]: 28.4%; Activity [16]: 51.9%; Activity [17]: 6.34%; Activity [18]: 3.34%; viability at 2 µM [19]: 77.7%; Activity [20]: 7.18%; Activity [21]: 32%; viability at 2 µM [22]: 89.9%
25 | NC(=O)c1cccc2cc(-c3ccccc3)c(=O)oc12 | < 40% | > 60% | > 60% | – | – | – | inhibition at 20 µM [5]: > 60%; inhibition at 5 µM [7]: > 50%
26 | NC(=O)c1cc(F)cc2cc(-c3ccsc3)c(=O)oc12 | < 40% | > 60% | > 60% | 20.6 µM | 11.6 µM | 1.9 µM | –
27 | NC(=O)c1cc(F)cc2cc(-c3cccs3)c(=O)oc12 | < 40% | > 80% | > 80% | 17.2 µM | 0.62 µM | 1.86 µM | inhibition at 5 µM [23]: > 70%; inhibition at 5 µM [9]: > 70%
28 | COc1cc(OC)cc(-c2cc3cc(F)cc(C(N)=O)c3oc2=O)c1 | < 40% | > 60% | > 60% | – | – | – | –
